Experimental data taken from patent US4829073A, “Thiadiazole oxides for treating gastrointestinal motility disorders” (Bristol-Myers Company, priority 1988, dated 1989).
Like-named read-outs stand apart in the source and are kept apart here. One block for each compound: values may come before it.

Key:
serotonin receptors = assay: Radioligand binding to membrane receptors: serotonin
Experimental: (§1) Radioligand binding studies to membrane receptors were carried out to assess the potential for interaction with other receptors. […] To assess any possible cardiovascular effects a bolus injection of the test compound at various doses was administered to anesthetized dogs. Thus, the compound of Example 1, at 5 mg/kg administered I.V., had no effect on heart rate or blood pressure in three anesthetized dogs.

rat gastric emptying = assay: In vivo small animal gastroprokinetic activity: rat gastric emptying; parameters: species or system male Sprague-Dawley rats; settings: normal rats; for ED50: Rattus norvegicus
Experimental: IN VIVO SMALL ANIMAL GASTROPROKINETIC ACTIVITY The method used to assess rat gastric emptying is a modification of the procedures described by D. A. Droppleman et al., Journal of Pharmacological Methods, 4, 227-230 (1980). Test compounds (0.3 to 30 mg/kg in 1 ml/kg vehicle) are administered either orally or subcutaneously to male, Sprague-Dawley rats (160-180 g) that were fasted overnight. The test animals receive 2.5 ml of a freshly made milk plus ground rat chow meal by oral intubation, thirty or fifteen minutes following oral or subcutaneous administration, respectively. Rats are sacrificed 25 minutes following the test meal, and the stomachs are quickly excised. Each stomach containing the remaining meal is weighed intact on an analytical balance. To empty the contents before reweighing, each stomach is cut open, rinsed thoroughly and then blotted dry. The difference in weights indicates the amount of meal remaining in the stomach. The amount of meal retained is calculated as a percent of the total meal weight administered.

rat fundic strip = assay: Electrically stimulated isolated rat stomach fundus; assay type: cell-based
Experimental: (§2) Two classical pharmacological preparations, the field stimulated guinea pig ileum and field stimulated rat fundic strip, are utilized to assess gastroprokinetic activity in vitro.
The rat fundic strip is prepared according to the method described by J. R. Vane, Brit. J. Pharmacol., 12, 344-349 (1957). For this preparation, strips are made by removing the fundal end of the stomach and slitting it open to form a sheet. Small cuts are made transversing the longitudinal muscle to produce two strips 3-4 cm in length. The tissues are mounted in a 20 ml organ bath containing Kreb's solution at 37° C. and are oxygenated with 95% O2 -5% CO2. Resting tension is adjusted to 1.0 g. Contractions are recorded by means of a force displacement transducer and a Beckman Dynograph Type R.
Once a consistent response to electrical field stimulation is established, varying amounts of a test compound are added to the bath. All compounds are administered three minutes prior to electrical stimulation at volumes of 0.2 ml to 0.6 ml for final bath concentrations of 0.1 μM thru 100 μM. Each tissue is thoroughly washed between each dose. A dose response curve is achieved by measuring the effect of increasing dose levels of test materials on the tissue contraction due to electrical field stimulation.

[1] = system: opossum lower esophageal sphincter (LES); assay: Lower esophageal sphincter pressure in the anesthetized opossum; assay type: in vivo
Text: This procedure measures the effect of the test compounds on the opossum lower esophageal sphincter (LES) which closely resembles the human sphincter. In order to test the effects of compounds on LES resting pressure, a small tube perfused with water at a constant flow rate is passed through the anesthetized opossum esophagus and water pressure in the tube is monitored. The method is similar to that described by R. Goyal et al., Gastroenterology, 71, 62-67 (1976). An increase in esophageal tone is measured as an increase in pressure and reported as a percent increase of the control determination. The compound of Example 1 was given as a single bolus dose of 10 mg/kg I.V. in four opossums.

[2] = system: circular smooth muscle contractile activity of the antral and duodenal portion of the stomach; assay: Gastric contractile activity in the anesthetized dog; assay type: in vivo, Male Beagle Dogs; settings: I.V. cumulative dosing 0.01 to 10 mg/kg
Experimental: The effect of test compounds on circular smooth muscle contractile activity of the antral and duodenal portion of the stomach are measured by strain gauge arches sewn on the serosal surface similar to the procedure described by […] et al., Digestion, 28, 205-209 (1983). Male Beagle Dogs, weighing 8 to 14 kg, are fasted overnight and then anesthetized with pentothal (thiopental sodium), 20 mg/kg and maintained with I.V. alpha-chloralose (100 mg/ml in PEG 400, diluted 1:1 with saline immediately before use) as needed, usually 100 mg/dose. The trachea is intubated for respiratory assistance if needed, and the right femoral artery and vein are cannulated to monitor blood pressure and administer I.V. solutions, respectively. The stomach and intestine are exposed by a midline incision, and a Walton-Brodie adjustable strain gauge arch is sewn on the ventral surface of the antrum of the stomach, 3-5 cm proximal to the pylorus. The arch is oriented to respond to contractions of the circular muscle, and the initial resting tension is set at 25 grams by adjusting the length of the arch. The preparation is allowed to stabilize for 1 to 2 hours. Fifteen minutes after observation of migrating motor complex phase III activity, test compounds are given every 10 minutes in a cumulative dosing manner beginning at 0.01 mg/kg to 10 mg/kg. The test compounds are dissolved in saline at concentrations that are dependent on the weight of each animal so that a constant volume will be administered at each dose level. […] The stomach contractions, the cumulative grams of tension developed by the stomach contractions, EKG, heart rate, blood pressure, and any additional contractile and/or electrical activities are recorded on a Beckman Dynograph. The results are expressed as the increased tension developed by the smooth muscles in response to the administration of test compound.

[3] = system: gastric emptying of a solid meal; assay: Gastric emptying of solid meal in conscious dogs; assay type: in vivo, beagle dogs; settings: for gastric half emptying time (T1/2) of a solid meal: control 208 ± 34, *P < .05; for half emptying time (t1/2) of a solid meal, in words: orally, conscious dogs
Experimental: Under aseptic conditions 10 beagle dogs were implanted with T-shaped titanium duodenal cannulas. The dogs were allowed to recover from surgery for 3 weeks. Each dog before the test was fasted for 16-18 hours. Water was provided ad lib. On the day of the test, the duodenal cannula was opened and the stomach contents were drained. The cannula was closed again and the dog was dosed orally with either placebo (10cc saline) or with test compound in 10cc saline. […] The dry weight of this food is 36 grams. After the dog had ingested the food the cannula was opened and an insert was placed in the cannula which drained the chyme through the cannula into a beaker. This collection was continued for 5 hours and samples were collected every thirty minutes. The chyme was filtered and dried in an oven. The dry weight collected every thirty minutes was deducted from the dry weight of the food left in the stomach. A time response curve of gastric emptying was developed and t1/2, the time taken to empty 50% of the solid meal from the stomach was determined. The t1/2 for the test compound at various doses was compared with controls. Significance of differences was determined using paired t-test.

[4] = system: guinea pig ileum (longitudinal muscle); assay: Electrically stimulated isolated guinea pig ileum; assay type: cell-based; settings: Cavia porcellus
Experimental: as §2
A modification of the procedure described by W. D. M. Paton, J. Physiol. (Lond), 127, 40-41P (1955). Segments of the preterminal ileal tissue, 3-4 cm in length, are mounted in a 20 ml tissue bath. The tissues are perfused at 37° C. with a modified Krebs solution and continuously gassed with 95%O2 -5% CO2. The solution is prepared with millipore water and consists of (mM/L): NaCl 116, KCl 5, CaCl2 2.5, KH2 PO4 1.2, MgSO4.7H2 O 0.5, NaHCO3 25 and Glucose 11.1.
A force displacement transducer is attached to each tissue and the resting tension adjusted to 1.0 g. The tissues are allowed to equilibrate for one hour, with washes every twenty minutes, after the stimulator is engaged or until twitch height remains stable.
Dose response curves for test compounds are established by adding single doses of the material in increasing increments until a maximal effect is achieved. Compounds are administered at volumes ranging from 0.2 to 0.6 ml to give final bath concentrations of 0.1 μM thru 100 μM. The test materials remain in contact with the tissue for 2 to 3 minutes, until the peak effect is achieved, before thorough washing with Kreb's solution. […]

[5] = system: calcium channel receptors; assay: Radioligand binding to membrane receptors: calcium channel
Experimental: as §1

benzodiazepine receptors = assay: Radioligand binding to membrane receptors: benzodiazepine
Experimental: as §1

[6] = system: heart rate or blood pressure; assay: Cardiovascular effects in anesthetized dogs; assay type: in vivo; settings: 5 mg/kg I.V. bolus; three anesthetized dogs
Experimental: as §1

dopamine receptors = assay: Radioligand binding to membrane receptors: dopamine
Experimental: as §1

GABA receptors = assay: Radioligand binding to membrane receptors: GABA
Experimental: as §1

[7] = 1.0 mg/kg P.O. (N = 3), 60 minutes before meal
[8] = 3.0 mg/kg P.O. (N = 3), 60 minutes before meal

binding to serotonin receptors (serotonin receptors): does not bind
EC50 (rat fundic strip; bath concentrations 0.1 μM thru 100 μM, 37° C., 95% confidence limits in parentheses): 8.2 µM
EC50 ([4]; 95% confidence limits of 84-1629, bath concentrations 0.1 μM thru 100 μM, 37° C., read-out: computer projected EC50 value): 224 µM
binding to calcium channel receptors [5]: does not bind
binding to benzodiazepine receptors (benzodiazepine receptors): does not bind
binding to dopamine receptors (dopamine receptors): does not bind
binding to GABA receptors (GABA receptors): does not bind
Compound: Nc1n[s+]([O-])nc1NCCSCc1ccc(CN2CCCCC2)o1 (stereo not shown) [Example 1, 3-Amino-4-{2-[(5-piperidinomethyl-2-furyl)methylthio]ethylamino}-1,2,5-thiadiazole 1-oxide]
ED50 (rat gastric emptying; sc, subcutaneous, 15 min before test meal, read-out: subcutaneous ED50 value, stomach emptying): 0.4 mg/kg
ED50 (rat gastric emptying; oral, 30 min before test meal, read-out: oral ED50 value, stomach emptying): 2.9 mg/kg
maximum response over control values, stomach emptying (rat gastric emptying; oral): 95±19%
maximum response over control values, stomach emptying (rat gastric emptying; subcutaneous): 105±6%
Emax (rat fundic strip; read-out: increase in contractile force, maximal response over control): 82 ± 10%
increase in LES pressure ([1]; 10 mg/kg I.V. single bolus, four opossums, percent increase of the control determination): 33%
inhibition of LES pressure following the initial increase ([1]; I.V., higher doses than 10 mg/kg): no inhibition of LES pressure following the initial increase was observed
ED50 ([2]; Canis lupus familiaris, iv, 50% of approx. 20 grams mean maximal response, read-out: ED50 value (dose necessary to achieve 10 grams of tension)): 0.24 mg/kg
duodenal tension [2]: increased the duodenal tension dose dependently
maximal response of developed tension [2]: 24±5 grams
gastric half emptying time (T1/2) of a solid meal ([3]; 0.1 mg/kg P.O. (N = 3), 60 minutes before meal): 3.4 ± 0.533 h
gastric half emptying time (T1/2) of a solid meal [3, 7]: 1.6 ± 0.233 h
gastric half emptying time (T1/2) of a solid meal [3, 8]: 1.63 ± 0.267 h
half emptying time (t1/2) of a solid meal, in words ([3]; 1.0 mg/kg): significantly decreased
Emax ([4]; read-out: increase in contractile amplitude, maximal response over control): 37 ± 4.8%
effect on blood pressure [6]: no effect
effect on heart rate [6]: no effect

Compound: NC1=NS(=O)(=O)N=C1NCCSCc1ccc(CN2CCCCC2)o1 [Example 2]
gastric half emptying time (T1/2) of a solid meal [3, 7]: 1.83 ± 0.3 h
half emptying time (t1/2) of a solid meal, in words ([3]; 1.0 mg/kg): significantly decreased

Compound: CCN(CC)CCNC(=O)c1cc(Cl)c(N)cc1OC [Metoclopramide, metoclopramide, reference compound]
gastric half emptying time (T1/2) of a solid meal ([3]; 0.1 mg/kg P.O. (N = 3), 30 min before meal): 2 ± 0.35 h
gastric half emptying time (T1/2) of a solid meal ([3]; 1.0 mg/kg P.O. (N = 3), 30 min before meal): 3.3 ± 0.233 h

Compound: CNC(=C[N+](=O)[O-])NCCSCc1ccc(CN(C)C)o1 [Ranitidine, ranitidine, reference compound]
gastric half emptying time (T1/2) of a solid meal [3, 7]: 3.43 ± 0.517 h
gastric half emptying time (T1/2) of a solid meal [3, 8]: 3.43 ± 0.4 h
half emptying time (t1/2) of a solid meal, in words ([3]; at the tested doses (1.0 and 3.0 mg/kg)): ineffective
